Here are results for two compounds from US20120190748A1, “GREATER UTILITY WITH THYROID HORMONE” (priority 2009, published 2012).

A short description of data set [1]: Case report: oral thyroid hormone regimens in one subject (Sam) after radioactive iodine ablation for Grave's disease. It counts as in vivo, human. Here is the method:
The subject (Sam), of this case report, was treated with radioactive iodine ablation with a relatively low dose. Prior to diagnosis of Grave's disease, Sam was never known to have free T4 levels above median, and had always maintained the same weight +/−3 lbs beyond the age of 18.
Over the next several years, attempting to ameliorate symptoms, Sam attempted to treat the hypothyroid state with the following means: 0.175 mg of T4 OD, resulting in palpitations, anxiety, stiffness, chest tightness, insomnia, sclerotic skin changes, sweating and heat intolerance within 6 months of initiating therapy. The severity of the symptoms required Sam to return to return to 0.15 mg OD of T4 within 1 week of experiencing the symptoms—remaining at that dose for 6 weeks. […] This was followed by an attempt to treat with: 0.125 mg of T4 with 0.005 mg of T3 OD, resulting in palpitations, anxiety, stiffness, chest tightness, insomnia, sclerotic skin changes, sweating and heat intolerance within 3 weeks of initiating therapy. The severity of the symptoms required Sam to return to 0.15 mg OD of T4 within 2 days of experiencing these symptoms—remaining at that dose for 6 weeks with resolution of the adrenergic symptoms. This was followed by an attempt to treat with: 0.035 mg of T3 OD, resulting in palpitations, anxiety, stiffness, chest tightness, insomnia, sclerotic skin changes, sweating and heat intolerance within 1 week of initiating therapy. The severity of the symptoms required Sam to return to 0.15 mg OD of T4 within 1 day of experiencing these symptoms—remaining at that dose for 6 weeks with resolution of the adrenergic symptoms. This was followed by an attempt to treat with: 0.005 mg of T3 q3:25hours, resulting in palpitations, anxiety, stiffness, chest tightness, insomnia, sclerotic skin changes, sweating and heat intolerance within 1 week of initiating therapy. The severity of the symptoms required Sam to return to 0.15 mg OD of T4 within 1 day of experiencing symptoms—remaining at that dose for many years, with continued nasal congestion and dysphoria.
Then the symptoms all stopped. […] Sam continued this dose for several months. […] Dysphoria and nasal congestion were improved over that which was present with once daily dosing, but still remained present, so Sam attempted to treat with the following: 0.075 mg of T4 q6hours, resulting in dysphoria, nasal congestion, and mild to moderate palpitations, anxiety, stiffness, chest tightness, insomnia, sweating and heat intolerance for 2 days, then the symptoms stopped, until Sam changed treatment to: 0.05 mg of T4 q4hours, resulting in dysphoria, nasal congestion, and mild palpitations, anxiety, stiffness, chest tightness, insomnia, sweating and heat intolerance for 2 days, then the symptoms stopped, with an even greater sense of well being than had been experienced on previous treatment regimes, but Sam further increased the dose to: 0.05 mg of T4 q3hrous, resulting in dysphoria, nasal congestion, and mild palpitations, anxiety, stiffness, chest tightness, insomnia, sclerotic skin changes, sweating and heat intolerance for 3 weeks, then the symptoms stopped. Sam remained on this dose for a period of approximately 3 years. […] Weight loss of 40 lbs (with a resulting body fat of 26% by electrical impedance, and lean mass of 100 lbs.) over the first 15 months occurred followed by weight gain of 15 lbs over the next 15 months (with a resulting body fat of 28% by electrical impedance, and lean mass of 108 lbs.). A reduced incidence and duration of common colds was noted, while at steady state over the 3 year period. On one occasion, when the expiry date of T4 administered was several months nearer to the time of administration, than that of T4 typically administered by Sam, within one day, onset of dysphoria, nasal congestion, palpitations, insomnia, anorexia, night sweats, cold sweats, cold intolerance, weakness and the sensation of weight loss occurred; the symptoms resolved within three days. […]

Data set [2] deals with Thyroid Binding Globulin, Transthyretin and Albumin. The note with it: cited from earlier work; for bound within the blood stream (protein binding): bound by Thyroid Binding Globulin, Transthyretin and Albumin.
The conditions of data set [3]: extended due to protein binding; human body; cited from earlier work.
The conditions of data set [4]: T3 compared with T4; cited from earlier work.
[5] abbreviates: 0.05 mg of T4 q3hrous, after the first 15 months.
Where [6] appears, read: 0.05 mg of T4 q3hrous, after the next 15 months.
Setting [7] is: 0.05 mg of T4 q3hrous, at 2.7 years.
Where [8] appears, read: dose reduced to 0.05 mg of T4 q4hours, within the first 2 weeks.

As for `N[C@@H](Cc1cc(I)c(Oc2ccc(O)c(I)c2)c(I)c1)C(=O)O` [T3, 3,5,3′ triiodo-L-thyronine], the “time to palpitations, anxiety, stiffness, chest tightness, insomnia, sclerotic skin changes, sweating and heat intolerance after initiating therapy” value in data set [1] (0.005 mg of T3 q3:25hours) and in data set [1] (0.035 mg of T3 OD) was at most 1 week throughout. The “bound within the blood stream (protein binding)” value in data set [2] is listed as 99.6%. Besides, in data set [3], the biological half-life result is given as “approximately 1 days”. For the same compound, the “stability (iodine atoms removed by hydrolysis)” value in data set [4] is on record as “more unstable”.
Turning to `N[C@@H](Cc1cc(I)c(Oc2cc(I)c(O)c(I)c2)c(I)c1)C(=O)O` [T4, 3,5,3′,5′ tetraiodo-L-thyronine], the “duration of dysphoria, nasal congestion and mild adrenergic symptoms” value in data set [1] (0.05 mg of T4 q3hrous) came out at 3 weeks. Moreover, in data set [1] (setting [5]), the “body fat by electrical impedance” value amounted to 26% and the lean mass was determined as 100 lbs. Moreover, in data set [1] (setting [6]), the “body fat by electrical impedance” value came out at 28% and the lean mass is on record as 108 lbs. Further, in data set [1] (0.05 mg of T4 q3hrous, approximately 3 years, remained far above normal), the “Free T4 concentration, gradual decrease” value came out at 15%. In data set [1] (setting [7]), the “EKG heart rate (normal sinus rhythm)” value worked out at 71 beats per minute, the blood glucose result was “normal blood glucose”, the lipid profile entry is “exceptional lipid profile” and the serum calcium result is “slightly above the upper limit of normal”. The weight loss in data set [1] (0.05 mg of T4 q3hrous, over the first 15 months) is reported as 40 lbs. Also, in data set [1] (0.05 mg of T4 q3hrous, over the next 15 months), the weight gain worked out at 15 lbs. Further, the “duration of dysphoria, nasal congestion and mild adrenergic symptoms” value in data set [1] (0.05 mg of T4 q4hours (first time)) was 2 days. For the same compound, the “duration of dysphoria, nasal congestion and mild to moderate adrenergic symptoms” value (shortened to “duration … to moderate adrenergic symptoms”) in data set [1] (0.075 mg of T4 q6hours) amounted to 2 days. Further, the weight loss in data set [1] (0.075 mg of T4 q8hours) is recorded as 2-3 pounds. In data set [1] (0.088 mg of T4 q8hours), the “duration … to moderate adrenergic symptoms” value is reported as “three weeks”; the “effect on previous symptoms (weight gain, body fat increase, insomnia, anorexia, night sweats, cold intolerance, weakness etc.)” value is given as “resolution of the previous symptoms within one week”. Also, the T4 concentrations entry in data set [1] (0.088 mg of T4 q8hours, continued for several months) is recorded as “higher than normal range”. For the same compound, in data set [1] (0.1 mg of T4 q8hours), the “duration … to moderate adrenergic symptoms” value is on record as “three weeks”; the weight gain is 2-3 pounds. The “change in weight (mean, persistent)” value in data set [1] (0.125 mg OD of T4, following several months of treatment) is 5 lbs. Further, the “time to palpitations, anxiety, stiffness, chest tightness, insomnia, sclerotic skin changes, sweating and heat intolerance after initiating therapy” value in data set [1] (0.175 mg of T4 OD) is reported as at most 6 months. For the same compound, in data set [1] (0.175 mg of T4 OD, in the 6th month), the “free T4” value was “free T4 rose”. Also, the “free T4 levels” value in data set [1] (T4 titrated to doses ranging from 0.1 mg OD to 0.25 mg OD) worked out at 28 pmol/L. For the same compound, in data set [1] (dose reduced to 0.05 mg of T4 q4hours), the “duration of dysphoria, nasal congestion, palpitations, insomnia, anorexia, night sweats, cold intolerance, weakness etc.” value is 8 weeks. In data set [1] (setting [8]), the “free T4 rise” value was 22% and the weight loss is reported as 2-3 lbs. The “bound more tightly than T3” value in data set [2] (T4 relative to T3) is “roughly 10 times”. The “bound within the blood stream (protein binding)” value in data set [2] is listed as 99.96%.
